Where a name gives a salt, the structure may show the parent alone.
How the values were obtained:
[1] = system: L6-myotubes; experiment: Glucose uptake in differentiated L6-myotubes (3H-2-deoxyglucose), compared to isoproterenol; assay type: cell-based; details: agonist 1×10^−5 M, 50 nM 3H-2-deoxyglucose
Procedure, shortened: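 Serum-starved differentiated L6 myotubes stimulated with agonist at 1×10^−5 M for 1 h 40 min, re-dosed in glucose-free medium for 20 min, then given 50 nM ^3H-2-deoxyglucose for 10 min. Uptake read by β-counting of NaOH lysates; activity expressed relative to isoproterenol.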

[2] = system: L6-myotubes; experiment: Measurement of intracellular cAMP levels in differentiated L6 cells (alpha screen cAMP kit), compared to isoproterenol; assay type: cell-based; details: agonist 1×10^−5 M, 15 min; for Emax at 10 µM: Rattus norvegicus, L6, 0.25 h, read-out: Biological example 2: intracellular cAMP levels, activity compared to that of isoproterenol
Procedure, shortened: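 L6 myoblasts were differentiated into myotubes over 7 days in 2% FBS, then serum-starved overnight. Agonist at 1×10^−5 M final was applied for 15 min in HBSS with 1% BSA, 5 mM HEPES and 1 mM IBMX, pH 7.4. After ethanol extraction and lysis, cAMP was quantified by AlphaScreen, with activity expressed relative to isoproterenol.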

Compound | Biological example 1: glucose uptake, activity compared to that of isoproterenol [1] | Emax at 10 µM [2] [%] | Biological example 2: intracellular cAMP levels, activity compared to that of isoproterenol [2]
CC(=O)N[C@H]1CC[C@@H](CC(C)(C)NC[C@@H](O)c2cccc(C#N)n2)CC1 [Example 137, N-((1S,4s)-4-(2-(((R)-2-(6-Cyanopyridin-2-yl)-2-hydroxyethyl)amino)-2-methylpropyl)cyclohexyl)acetamide] | + + | < 25 | 
CC(C)(C[C@H]1CC[C@@H](NS(C)(=O)=O)CC1)NC[C@@H](O)c1cccc(C#N)n1 [Example 138, N-((1S,4s)-4-(2-(((R)-2-(6-Cyanopyridin-2-yl)-2-hydroxyethyl)amino)-2-methylpropyl)cyclohexyl)methanesulfonamide] | + + | < 25 | 
CC(=O)N[C@H]1CC[C@H](CC(C)(C)NC[C@H](O)c2cccc(C#N)n2)CC1 [Example 139, N-((1S,4r)-4-(2-(((S)-2-(6-Cyanopyridin-2-yl)-2-hydroxyethyl)amino)-2-methylpropyl)cyclohexyl)acetamide] | + + + | 25 to 50 | 
CC(C)(C[C@H]1CC[C@H](NS(C)(=O)=O)CC1)NC[C@H](O)c1cccc(C#N)n1 [Example 140, N-((1S,4r)-4-(2-(((S)-2-(6-Cyanopyridin-2-yl)-2-hydroxyethyl)amino)-2-methylpropyl)cyclohexyl)methanesulfonamide] | + + + | < 25 | 
CC(=O)N[C@H]1CC[C@@H](CC(C)(C)NC[C@H](O)c2cccc(C#N)n2)CC1 [Example 141, N-((1R,4s)-4-(2-(((S)-2-(6-Cyanopyridin-2-yl)-2-hydroxyethyl)amino)-2-methylpropyl)cyclohexyl)acetamide] | + + + | < 25 | 
CC(C)(C[C@H]1CC[C@@H](NS(C)(=O)=O)CC1)NC[C@H](O)c1cccc(C#N)n1 [Example 142, N-((1R,4s)-4-(2-(((S)-2-(6-Cyanopyridin-2-yl)-2-hydroxyethyl)amino)-2-methylpropyl)cyclohexyl)methanesulfonamide] | + + + | < 25 | 
CC(=O)N[C@H]1CC[C@@H](CC(C)(C)NC[C@H](O)c2cccnc2C)CC1 [Example 143, N-((1S,4s)-4-(2-(((R)—H-hydroxy-2-(2-methylpyridin-3-yl)ethyl)amino)-2-methylpropyl)cyclohexyl)acetamide dihydrochloride] | + + + | < 25 | 
Cc1ncccc1[C@@H](O)CNC(C)(C)C[C@H]1CC[C@@H](NS(C)(=O)=O)CC1 [Example 144, N-((1S,4s)-4-(2-(((R)-2-Hydroxy-2-(2-methylpyridin-3-yl)ethyl)amino)-2-methylpropyl)cyclohexyl)methanesulfonamide dihydrochloride] | + + | < 25 | 
CC(=O)N[C@H]1CC[C@H](CC(C)(C)NC[C@H](O)c2cccnc2C)CC1.Cl [Example 145, N-((1R,4r)-4-(2-(((R)-2-Hydroxy-2-(2-methylpyridin-3-yl)ethyl)amino)-2-methylpropyl)cyclohexyl)acetamide dihydrochloride] | + + + | < 25 | 
Cc1ncccc1[C@@H](O)CNC(C)(C)C[C@H]1CC[C@H](NS(C)(=O)=O)CC1 [Example 146, N-((1R,4r)-4-(2-(((R)-2Hydroxy-2-(2-methylpyridin-3-yl)ethyl)amino)-2-methylpropyl)cyclohexyl)methanesulfonamide dihydrochloride] | + + | < 25 | 
CC(C)(C[C@H]1CC[C@@H](NC(=O)OC(C)(C)C)CC1)NC[C@H](O)c1cccc(C(F)(F)F)n1 [Example 147, tert-Butyl ((1R,4s)-4-(2-(((S)-2-hydroxy-2-(6-(trifluoromethyl)pyridin-2-yl)ethyl)amino)-2-methylpropyl)cyclohexyl)carbamate] | + + | < 25 | 
CC(C)(C[C@H]1CC[C@H](NC(=O)OC(C)(C)C)CC1)NC[C@H](O)c1cccc(C(F)(F)F)n1 [Example 148, tert-Butyl ((1S,4r)-4-(2-(((S)-2-hydroxy-2-(6-(trifluoromethyl)pyridin-2-yl)ethyl)amino)-2-methylpropyl)cyclohexyl)carbamate] | + + + | < 25 | 
CC(=O)N[C@H]1CC[C@@H](CC(C)(C)NC[C@H](O)c2cccc(C(F)(F)F)n2)CC1 [Example 149, N-((1R,4s)-4-(2-(((S)-2-Hydroxy-2-(6-(trifluoromethyl)pyridin-2-yl)-ethyl)amino)-2-methylpropyl)cyclohexyl)acetamide dihydrochloride] | + + | < 25 | 
CC(C)(C[C@H]1CC[C@@H](NS(C)(=O)=O)CC1)NC[C@H](O)c1cccc(C(F)(F)F)n1 [Example 150, N-((1R,4s)-4-(2-(((S)-2-Hydroxy-2-(6-(trifluoromethyl)pyridin-2-yl)ethyl)-amino)-2-methylpropyl)cyclohexyl)methanesulfonamide dihydrochloride] | + + + | < 25 | 
CC(=O)N[C@H]1CC[C@H](CC(C)(C)NC[C@H](O)c2cccc(C(F)(F)F)n2)CC1 [Example 151, N-((1S,4r)-4-(2-(((S)-2-Hydroxy-2-(6-(trifluoromethyl)pyridin-2-yl)-ethyl)amino)-2-methylpropyl)cyclohexyl)acetamide dihydrochloride] | + + + | < 25 | 
CC(C)(C[C@H]1CC[C@H](NS(C)(=O)=O)CC1)NC[C@H](O)c1cccc(C(F)(F)F)n1 [Example 152, N-((1S,4r)-4-(2-(((S)-2-Hydroxy-2-(6-(trifluoromethyl)pyridin-2-yl)-ethyl)amino)-2-methylpropyl)cyclohexyl)methanesulfonamide dihydrochloride] | + + | < 25 | 
CC(C)(C[C@H]1CC[C@H](NC(=O)OC(C)(C)C)CC1)NC[C@H](O)c1cccc(F)c1 [Example 153, tert-Butyl ((1R,4r)-4-(2-(((R)-2-(3-fluorophenyl)-2-hydroxyethyl)amino)-2-methylpropyl)cyclohexyl)carbamate] | + + + | 25 to 50 | 
CC(C)(C[C@H]1CC[C@H](NC(=O)C(C)(C)C)CC1)NC[C@H](O)c1cccc(F)c1.Cl [Example 154, N-((1R,4r)-4-(2-(((R)-2-(3-Fluorophenyl)-2-hydroxyethyl)amino)-2-methylpropyl)cyclohexyl)pivalamide hydrochloride] | + + + | 25 to 50 | 
CC(C)(C[C@H]1CC[C@H](NC(=O)C2CCC2)CC1)NC[C@H](O)c1cccc(F)c1.Cl [Example 155, N-((1R,4r)-4-(2-(((R)-2-(3-Fluorophenyl)-2-hydroxyethyl)amino)-2-methylpropyl)cyclohexyl)cyclobutanecarboxamide hydrochloride] | + + + |  | + +
CC(C)(C[C@H]1CC[C@H](NC(=O)C2CC2)CC1)NC[C@H](O)c1cccc(F)c1.Cl [Example 156, N-((1R,4r)-4-(2-(((R)-2-(3-Fluorophenyl)-2-hydroxyethyl)amino)-2-methylpropyl)cyclohexyl)cyclopropanecarboxamide hydrochloride] | + + + |  | + + +
CC(C)(C[C@H]1CC[C@H](NC(=O)C(F)(F)F)CC1)NC[C@H](O)c1cccc(F)c1.Cl [Example 157, 2,2,2-Trifluoro-N-((1R,4r)-4-(2-(((R)-2-(3-fluorophenyl)-2-hydroxyethyl)-amino)-2-methylpropyl)cyclohexyl)acetamide hydrochloride] | + + + | 25 to 50 | 
CN(C)C(=O)N[C@H]1CC[C@H](CC(C)(C)NC[C@H](O)c2cccc(F)c2)CC1.Cl [Example 158, 3-((1R,4r)-4-(2-(((R)-2-(3-Fluorophenyl)-2-hydroxyethyl)amino)-2-methyl-propyl)cyclohexyl)-1,1-dimethylurea hydrochloride] | + + + |  | + + +
CCCS(=O)(=O)N[C@H]1CC[C@H](CC(C)(C)NC[C@H](O)c2cccc(F)c2)CC1 [Example 159, N-((1R,4r)-4-(2-(((R)-2-(3-Fluorophenyl)-2-hydroxyethyl)amino)-2-methylpropyl)cyclohexyl)propane-1-sulfonamide hydrochloride] | + + + | 25 to 50 | 
CC(C)(C[C@H]1CC[C@H](NS(=O)(=O)C(F)(F)F)CC1)NC[C@H](O)c1cccc(F)c1 [Example 160, 1,1,1-Trifluoro-N-((1R,4r)-4-(2-(((R)-2-(3-fluorophenyl)-2-hydroxyethyl)-amino)-2-methylpropyl)cyclohexyl)methanesulfonamide hydrochloride] | + + + | < 25 | 

From US20240390298A1, “CYCLOHEXYL BETA-HYDROXY ALKYL AMINES AND MEDICAL USES THEREOF” (ATROGI AB, priority 2021, published 2024)
